Key:
southern crabgrass = assay: Test Example 5: herbicidal effect by foliage application, plastic box (Table 20, symbol F); format: in vivo, southern crabgrass (Digitaria ciliaris); settings: for Herbicidal effect by foliage application, F: southern crabgrass: amount of applied herbicide 320 g/ha, foliage application after 14-day growth, evaluated three weeks after application
In short: (§1)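 Post-emergence foliar test in sterilized diluvial soil. Compound applied as water-diluted emulsion at a predetermined rate to 14-day-old plants; evaluation at three weeks.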

chickweed = assay: Test Example 5: herbicidal effect by foliage application, plastic box (Table 20, symbol P); format: in vivo, common chickweed (Stellaria media); settings: for Herbicidal effect by foliage application, P: chickweed: amount of applied herbicide 320 g/ha, foliage application after 14-day growth, evaluated three weeks after application
In short: as §1

green foxtail = assay: Test Example 5: herbicidal effect by foliage application, plastic box (Table 20, symbol G); format: in vivo, green foxtail (Setaria viridis); settings: for Herbicidal effect by foliage application, G: green foxtail: amount of applied herbicide 320 g/ha, foliage application after 14-day growth, evaluated three weeks after application
In short: as §1

lambsquarters = assay: Test Example 5: herbicidal effect by foliage application, plastic box (Table 20, symbol O); format: in vivo, lambsquarters (Chenopodium album); settings: for Herbicidal effect by foliage application, O: lambsquarters: amount of applied herbicide 320 g/ha, foliage application after 14-day growth, evaluated three weeks after application
In short: as §1

Italian ryegrass [1] = assay: Test Example 4: herbicidal effect by soil treatment (Table 19, symbol K); format: in vivo, Italian ryegrass (Lolium multiflorum); settings: amount of applied herbicide 320 g/ha
From the text: (§2) [Test Example 4] Herbicidal Effect Test by Soil Treatment
(§3) Sterilized diluvial soil was placed in a plastic box having a length of 21 cm, a width of 13 cm, and a depth of 7 cm. The seeds of each of southern crabgrass, green foxtail, barnyard grass, wild oat, blackgrass, Italian ryegrass, windgrass, velvetleaf, redroot pigweed, lambsquarters, chickweed, false cleavers, persian speedwell, corn, soybean, rice, wheat, beet, and rapeseed were sowed in a spot-like manner and covered with the soil having a thickness of about 1.5 cm. Subsequently, the emulsion agent of the compound of the present invention prepared according to Formulation Example 2 was diluted with water so as to achieve a predetermined herbicide amount, and the diluted emulsion agent was uniformly applied to the surface of the soil with a small-sized spray. The plastic box was placed in a greenhouse at 25° C. to 30° C. for growth of the plants. Three weeks after the herbicide application, the effect of the herbicide on each plant was evaluated according to the criteria of Test Example 1.

windgrass = assay: Test Example 5: herbicidal effect by foliage application, plastic box (Table 20, symbol L); format: in vivo, windgrass (Apera spica-venti); settings: for Herbicidal effect by foliage application, L: windgrass: amount of applied herbicide 320 g/ha, foliage application after 14-day growth, evaluated three weeks after application
In short: as §1

redroot pigweed [2] = assay: Test Example 5: herbicidal effect by foliage application, plastic box (Table 20, symbol N); format: in vivo, redroot pigweed (Amaranthus retroflexus); settings: for Herbicidal effect by foliage application, N: redroot pigweed: amount of applied herbicide 320 g/ha, foliage application after 14-day growth, evaluated three weeks after application
In short: as §1

blackgrass = assay: Test Example 5: herbicidal effect by foliage application, plastic box (Table 20, symbol J); format: in vivo, blackgrass (Alopecurus myosuroides); settings: for Herbicidal effect by foliage application, J: blackgrass: amount of applied herbicide 320 g/ha, foliage application after 14-day growth, evaluated three weeks after application
In short: as §1

Italian ryegrass [3] = assay: Test Example 5: herbicidal effect by foliage application, plastic box (Table 20, symbol K); format: in vivo, Italian ryegrass (Lolium multiflorum); settings: for Herbicidal effect by foliage application, K: Italian ryegrass: amount of applied herbicide 320 g/ha, foliage application after 14-day growth, evaluated three weeks after application
In short: as §1

barnyard grass [4] = assay: Test Example 5: herbicidal effect by foliage application, plastic box (Table 20, symbol H); format: in vivo, barnyard grass (Echinochloa crus-galli); settings: for Herbicidal effect by foliage application, H: barnyard grass: amount of applied herbicide 320 g/ha, foliage application after 14-day growth, evaluated three weeks after application
In short: as §1

rice flat sedge = assay: Test Example 3: herbicidal effect by foliage application, Wagner pot (Table 18, symbol E); format: in vivo, rice flat sedge (Cyperus iria); settings: 320 g/ha
In short: (§4)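 Plants were sown in alluvial soil held under 0.1–0.5 cm standing water and grown 14 days in a greenhouse at 25–30 °C. An emulsifiable formulation, water-diluted to the set dose, was then sprayed onto the foliage, and effects were scored three weeks later using previously defined criteria.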

wild oat [5] = assay: Test Example 4: herbicidal effect by soil treatment (Table 19, symbol I); format: in vivo, wild oat (Avena fatua); settings: amount of applied herbicide 320 g/ha
From the text: as §2, §3

velvetleaf = assay: Test Example 5: herbicidal effect by foliage application, plastic box (Table 20, symbol M); format: in vivo, velvetleaf (Abutilon theophrasti); settings: for Herbicidal effect by foliage application, M: velvetleaf: amount of applied herbicide 320 g/ha, foliage application after 14-day growth, evaluated three weeks after application
In short: as §1

Chinese sprangletop = assay: Test Example 3: herbicidal effect by foliage application, Wagner pot (Table 18, symbol D); format: in vivo, chinese sprangletop (Leptochloa chinensis); settings: 320 g/ha
In short: as §4

persian speedwell = assay: Test Example 5: herbicidal effect by foliage application, plastic box (Table 20, symbol R); format: in vivo, Persian speedwell (Veronica persica); settings: for Herbicidal effect by foliage application, R: persian speedwell: amount of applied herbicide 320 g/ha, foliage application after 14-day growth, evaluated three weeks after application
In short: as §1

wild oat [6] = assay: Test Example 5: herbicidal effect by foliage application, plastic box (Table 20, symbol I); format: in vivo, wild oat (Avena fatua); settings: for Herbicidal effect by foliage application, I: wild oat: amount of applied herbicide 320 g/ha, foliage application after 14-day growth, evaluated three weeks after application
In short: as §1

barnyard grass [7] = assay: Test Example 3: herbicidal effect by foliage application, Wagner pot (Table 18, symbol H); format: in vivo, barnyard grass (Echinochloa crus-galli); settings: 320 g/ha
In short: as §4

redroot pigweed [8] = assay: Test Example 4: herbicidal effect by soil treatment (Table 19, symbol N); format: in vivo, redroot pigweed (Amaranthus retroflexus); settings: amount of applied herbicide 320 g/ha
From the text: as §2, §3

[9] = foliage application, 320 g/ha, three weeks after application

Cc1nn(C)c(=O)c(-c2c(-c3ccc(OC(F)(F)F)cc3)sc3ccccc23)c1O [1-031]
herbicidal effect grade, F: southern crabgrass (southern crabgrass; [9]): 0 (Herbicidal rate of 5% or less (almost no effect)) | herbicidal effect grade, P: chickweed (chickweed; [9]): 5 (Herbicidal rate of 90% or more (almost completely withered)) | herbicidal effect grade, G: green foxtail (green foxtail; [9]): 4 (Herbicidal rate of 70% or more and less than 90%) | herbicidal effect grade, O: lambsquarters (lambsquarters; [9]): 5 (Herbicidal rate of 90% or more (almost completely withered)) | herbicidal effect rating, K: Italian ryegrass (Italian ryegrass [1]): 3 (Herbicidal rate of 40% or more and less than 70%) | herbicidal effect grade, L: windgrass (windgrass; [9]): 0 (Herbicidal rate of 5% or less (almost no effect)) | herbicidal effect grade, N: redroot pigweed (redroot pigweed [2]; [9]): 5 (Herbicidal rate of 90% or more (almost completely withered)) | herbicidal effect grade, J: blackgrass (blackgrass; [9]): 3 (Herbicidal rate of 40% or more and less than 70%) | herbicidal effect grade, K: Italian ryegrass (Italian ryegrass [3]; [9]): 5 (Herbicidal rate of 90% or more (almost completely withered)) | herbicidal effect grade, H: barnyard grass (barnyard grass [4]; [9]): 3 (Herbicidal rate of 40% or more and less than 70%) | herbicidal effect on E (rice flat sedge), rating 0-5 (rice flat sedge): 5 (Herbicidal rate of 90% or more (almost completely withered)) | herbicidal effect rating, I: wild oat (wild oat [5]): 0 (Herbicidal rate of 5% or less (almost no effect)) | herbicidal effect grade, M: velvetleaf (velvetleaf; [9]): 5 (Herbicidal rate of 90% or more (almost completely withered)) | herbicidal effect on D (Chinese sprangletop), rating 0-5 (Chinese sprangletop): 0 (Herbicidal rate of 5% or less (almost no effect)) | herbicidal effect grade, R: persian speedwell (persian speedwell; [9]): 5 (Herbicidal rate of 90% or more (almost completely withered)) | herbicidal effect grade, I: wild oat (wild oat [6]; [9]): 0 (Herbicidal rate of 5% or less (almost no effect)) | herbicidal effect on H (barnyard grass), rating 0-5 (barnyard grass [7]): 4 (Herbicidal rate of 70% or more and less than 90%) | herbicidal effect rating, N: redroot pigweed (redroot pigweed [8]): 4 (Herbicidal rate of 70% or more and less than 90%)

Cc1nn(C)c(=O)c(-c2c(-c3ccc(C(C)C)cc3)sc3cc(F)c(F)cc23)c1O [5-005]
Herbicidal effect by foliage application, F: southern crabgrass (southern crabgrass): 0 (Herbicidal rate of 5% or less (almost no effect)) | Herbicidal effect by foliage application, P: chickweed (chickweed): 5 (Herbicidal rate of 90% or more (almost completely withered)) | Herbicidal effect by foliage application, G: green foxtail (green foxtail): 0 (Herbicidal rate of 5% or less (almost no effect)) | Herbicidal effect by foliage application, O: lambsquarters (lambsquarters): 0 (Herbicidal rate of 5% or less (almost no effect)) | Herbicidal effect by foliage application, L: windgrass (windgrass): 0 (Herbicidal rate of 5% or less (almost no effect)) | Herbicidal effect by foliage application, N: redroot pigweed (redroot pigweed [2]): 3 (Herbicidal rate of 40% or more and less than 70%) | Herbicidal effect by foliage application, J: blackgrass (blackgrass): 0 (Herbicidal rate of 5% or less (almost no effect)) | Herbicidal effect by foliage application, K: Italian ryegrass (Italian ryegrass [3]): 0 (Herbicidal rate of 5% or less (almost no effect)) | Herbicidal effect by foliage application, H: barnyard grass (barnyard grass [4]): 0 (Herbicidal rate of 5% or less (almost no effect)) | herbicidal effect on rice flat sedge (E) (rice flat sedge): 4 (Herbicidal rate of 70% or more and less than 90%) | Herbicidal effect by foliage application, M: velvetleaf (velvetleaf): 3 (Herbicidal rate of 40% or more and less than 70%) | herbicidal effect on Chinese sprangletop (D) (Chinese sprangletop): 5 (Herbicidal rate of 90% or more (almost completely withered)) | Herbicidal effect by foliage application, R: persian speedwell (persian speedwell): 4 (Herbicidal rate of 70% or more and less than 90%) | Herbicidal effect by foliage application, I: wild oat (wild oat [6]): 0 (Herbicidal rate of 5% or less (almost no effect)) | herbicidal effect on barnyard grass (H) (barnyard grass [7]): 3 (Herbicidal rate of 40% or more and less than 70%)

CCCC(=O)Oc1c(C)nn(C)c(=O)c1-c1c(-c2ccc(C(C)C)cc2)sc2cc(F)c(F)cc12 [5-006]
Herbicidal effect by foliage application, F: southern crabgrass (southern crabgrass): 0 (Herbicidal rate of 5% or less (almost no effect)) | Herbicidal effect by foliage application, P: chickweed (chickweed): 4 (Herbicidal rate of 70% or more and less than 90%) | Herbicidal effect by foliage application, G: green foxtail (green foxtail): 0 (Herbicidal rate of 5% or less (almost no effect)) | Herbicidal effect by foliage application, O: lambsquarters (lambsquarters): 3 (Herbicidal rate of 40% or more and less than 70%) | Herbicidal effect by foliage application, L: windgrass (windgrass): 0 (Herbicidal rate of 5% or less (almost no effect)) | Herbicidal effect by foliage application, N: redroot pigweed (redroot pigweed [2]): 3 (Herbicidal rate of 40% or more and less than 70%) | Herbicidal effect by foliage application, J: blackgrass (blackgrass): 0 (Herbicidal rate of 5% or less (almost no effect)) | Herbicidal effect by foliage application, K: Italian ryegrass (Italian ryegrass [3]): 0 (Herbicidal rate of 5% or less (almost no effect)) | Herbicidal effect by foliage application, H: barnyard grass (barnyard grass [4]): 0 (Herbicidal rate of 5% or less (almost no effect)) | herbicidal effect on rice flat sedge (E) (rice flat sedge): 3 (Herbicidal rate of 40% or more and less than 70%) | Herbicidal effect by foliage application, M: velvetleaf (velvetleaf): 3 (Herbicidal rate of 40% or more and less than 70%) | herbicidal effect on Chinese sprangletop (D) (Chinese sprangletop): 1 (Herbicidal rate of 5% or more and less than 20%) | Herbicidal effect by foliage application, R: persian speedwell (persian speedwell): 1 (Herbicidal rate of 5% or more and less than 20%) | Herbicidal effect by foliage application, I: wild oat (wild oat [6]): 0 (Herbicidal rate of 5% or less (almost no effect)) | herbicidal effect on barnyard grass (H) (barnyard grass [7]): 4 (Herbicidal rate of 70% or more and less than 90%)

Cc1nn(C)c(=O)c(-c2c(-c3ccc(C#N)cc3)sc3cc(Cl)c(Cl)cc23)c1O [5-049]
Herbicidal effect by foliage application, F: southern crabgrass (southern crabgrass): 0 (Herbicidal rate of 5% or less (almost no effect)) | Herbicidal effect by foliage application, P: chickweed (chickweed): 0 (Herbicidal rate of 5% or less (almost no effect)) | Herbicidal effect by foliage application, G: green foxtail (green foxtail): 2 (Herbicidal rate of 20% or more and less than 40%) | Herbicidal effect by foliage application, O: lambsquarters (lambsquarters): 4 (Herbicidal rate of 70% or more and less than 90%) | Herbicidal effect by foliage application, L: windgrass (windgrass): 3 (Herbicidal rate of 40% or more and less than 70%) | Herbicidal effect by foliage application, N: redroot pigweed (redroot pigweed [2]): 5 (Herbicidal rate of 90% or more (almost completely withered)) | Herbicidal effect by foliage application, J: blackgrass (blackgrass): 0 (Herbicidal rate of 5% or less (almost no effect)) | Herbicidal effect by foliage application, K: Italian ryegrass (Italian ryegrass [3]): 0 (Herbicidal rate of 5% or less (almost no effect)) | Herbicidal effect by foliage application, H: barnyard grass (barnyard grass [4]): 0 (Herbicidal rate of 5% or less (almost no effect)) | herbicidal effect on rice flat sedge (E) (rice flat sedge): 0 (Herbicidal rate of 5% or less (almost no effect)) | Herbicidal effect by foliage application, M: velvetleaf (velvetleaf): 1 (Herbicidal rate of 5% or more and less than 20%) | herbicidal effect on Chinese sprangletop (D) (Chinese sprangletop): 0 (Herbicidal rate of 5% or less (almost no effect)) | Herbicidal effect by foliage application, R: persian speedwell (persian speedwell): 0 (Herbicidal rate of 5% or less (almost no effect)) | Herbicidal effect by foliage application, I: wild oat (wild oat [6]): 0 (Herbicidal rate of 5% or less (almost no effect)) | herbicidal effect on barnyard grass (H) (barnyard grass [7]): 3 (Herbicidal rate of 40% or more and less than 70%)
